Results on 8 molecules are retold here after ChEMBL document CHEMBL3137667, “[Drug-induced liver injury; fourteenth updated edition of the bibliographic database of liver injuries and related drugs]” (Gastroenterol Clin Biol, 2004).

The conditions of series [1]: human.
The conditions of series [2]: human. This is another data set of the same source.
The conditions of series [3]: human, serum.
Series [4] in a line: Highest frequency of moderate liver toxicity observed during clinical trials, expressed as a percentage. [column '% BIOL' in source]. The note with it: human.
The conditions of series [5]: human. This is another data set of the same source.
The conditions of series [6]: human, serum. The source holds these as a separate data set.
For series [7] the following is noted: human, serum, 4383 h.
For series [8] the following is noted: human. The source holds these as a separate data set.
For series [9] the following is noted: human. The source holds these as a separate data set.
The conditions of series [10]: human. This is another data set of the same source.
Series [11] in a line: Highest frequency of acute liver toxicity observed during clinical trials, expressed as a percentage. [column '% AIGUE' in source]. The note with it: human.
For series [12] the following is noted: human. The source holds these as a separate data set.
The conditions of series [13]: human. The source holds these as a separate data set.
The conditions of series [14]: human. This is another data set of the same source.

*1 amine or outer side, *2 acyl side, *3 side chain or, on linkers, in order; H or OH if unused. Where a SMILES comes first, the peptide text is derived from it. Bridges are numbered along the chain shown (N, C = ends). [ ]: non-standard residue; d: D form. The star is where a group is joined. X1 = O=C1C[C@@H](C(=O)[*:2])N([*:1])C[C@H]1CS[C@@H]1CN2CCC1CC2; NMePhe(4-NMe2) = CN[C@@H](Cc1ccc(N(C)C)cc1)C(=O)O; Picolinoyl(3-OH) = O=C(c1ncccc1O)*; Phg = N[C@H](C(=O)O)c1ccccc1; dAbu = CC[C@@H](N)C(=O)O
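Wherever Hepatotoxicity (association with vascular disease) is given: count of indexed literature references reporting vascular liver injury in humans, e.g. peliosis hepatitis, hepatic veno-occlusive disease or Budd-Chiari syndrome.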
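Wherever Hepatotoxicity (benign tumour) is given: value is a count of indexed literature references citing a benign tumour confirmed by histopathology.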
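Wherever Hepatotoxicity (choleostasis) is given: human cholestatic liver injury, shown by histopathology or by peak ALT or AST elevation over alkaline phosphatase ratio below 2, value counts indexed literature reports.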
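Wherever Hepatotoxicity (chronic liver disease) is given: chronic liver injury confirmed by histopathology or persistently raised serum aminotransferase activity beyond 6 months, value given as the count of indexed literature references.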
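Wherever Hepatotoxicity (cirrhosis) is given: value is a count of indexed literature references reporting cirrhosis confirmed by histopathology.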
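Wherever Hepatotoxicity (cytolytic) is given: human cytolytic liver injury, shown by histopathology or by a ratio above 5 of peak ALT or AST elevation to alkaline phosphatase elevation, value counts indexed references.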
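Wherever Hepatotoxicity (granulomatous hepatitis) is given: value is a count of indexed literature references reporting granulomatous liver disease confirmed by histopathology.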
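Wherever Hepatotoxicity (malignant tumour) is given: malignant tumour confirmed by histopathology, value gives the count of indexed literature references reporting it.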
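Wherever Hepatotoxicity (severe hepatitis) is given: human clinical data: severe hepatitis, meaning potentially life-threatening liver failure or clinically observed cases, the value counts how many indexed literature references report it.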
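Wherever Hepatotoxicity (steatosis) is given: steatosis confirmed by histopathology, value is the count of indexed references.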

For the molecule `CCN(CC)CCS(=O)(=O)[C@@H]1CCN2C(=O)c3coc(n3)CC(=O)C[C@H](O)/C=C(C)/C=C/CNC(=O)/C=C/[C@@H](C)[C@@H](C(C)C)OC(=O)[C@@H]12.CC[C@H]1NC(=O)[C@@H](NC(=O)c2ncccc2O)[C@@H](C)OC(=O)[C@H](c2ccccc2)NC(=O)[C@@H]2CC(=O)[C@H](CS[C@@H]3CN4CCC3CC4)CN2C(=O)[C@H](Cc2ccc(N(C)C)cc2)N(C)C(=O)[C@@H]2CCCN2C1=O` [QUINUPRISTIN/DALFOPRISTIN] ({Picolinoyl(3-OH)}-T[dAbu]P[NMePhe(4-NMe2)][X1][Phg]; ester 1-C), in [1], the “Hepatotoxicity (choleostasis)” value was 0. Moreover, the “Hepatotoxicity (granulomatous hepatitis)” value in series [2] is 0. For the same molecule, the “Hepatotoxicity (acute)” value in [3] turned out to be 0; in series [11], 0%. Also, the figures for the “Hepatotoxicity (moderate)” value in [4] and in series [6] were 7.1% and 8, respectively. Further, the “Hepatotoxicity (association with vascular disease)” value in series [5] is 0. The “Hepatotoxicity (chronic liver disease)” value in series [7] turned out to be 0. In addition, in series [8], the “Hepatotoxicity (severe hepatitis)” value was 0. In addition, the “Hepatotoxicity (steatosis)” value in [9] is listed as 0. In series [10], the “Hepatotoxicity (malignant tumour)” value is on record as 0. Besides, the “Hepatotoxicity (cirrhosis)” value in series [12] worked out at 0. Moreover, in series [13], the “Hepatotoxicity (benign tumour)” value worked out at 0. Further, the “Hepatotoxicity (cytolytic)” value in [14] was 0.
For `CC(Cc1ccccc1)(NC(=O)CN)c1ccccc1` (configuration not stated) [REMACEMIDE], the “Hepatotoxicity (choleostasis)” value in series [1] is listed as 0. Also, in [2], the “Hepatotoxicity (granulomatous hepatitis)” value is listed as 0. The “Hepatotoxicity (acute)” value in [3] was 0; in series [11] it was 0%. For the same molecule, the “Hepatotoxicity (moderate)” value in series [4] is reported as 0.9%; in series [6] it was 3. Further, the “Hepatotoxicity (association with vascular disease)” value in series [5] stood at 0. For the same molecule, the “Hepatotoxicity (chronic liver disease)” value in series [7] is recorded as 0. Besides, in [8], the “Hepatotoxicity (severe hepatitis)” value was found to be 0. Moreover, in [9], the “Hepatotoxicity (steatosis)” value came to 0. In addition, the “Hepatotoxicity (malignant tumour)” value in series [10] stood at 0. The “Hepatotoxicity (cirrhosis)” value in series [12] is given as 0. In addition, the “Hepatotoxicity (benign tumour)” value in [13] is 0. Moreover, in [14], the “Hepatotoxicity (cytolytic)” value worked out at 0.
For the molecule `CCN1CCC[C@H]1CNC(=O)c1c(OC)ccc(Br)c1OC` [REMOXIPRIDE], the “Hepatotoxicity (choleostasis)” value in series [1] was found to be 0. Also, the “Hepatotoxicity (granulomatous hepatitis)” value in [2] is 0. For the same molecule, the “Hepatotoxicity (acute)” value turned out to be 0 in series [3] and 0% in [11]. Moreover, the “Hepatotoxicity (moderate)” value in [4] is given as 6.4%; in series [6], 7. Besides, the “Hepatotoxicity (association with vascular disease)” value in series [5] is listed as 0. Besides, in [7], the “Hepatotoxicity (chronic liver disease)” value is 0. Also, the “Hepatotoxicity (severe hepatitis)” value in series [8] came out at 0. Also, in series [9], the “Hepatotoxicity (steatosis)” value is given as 0. For the same molecule, in series [10], the “Hepatotoxicity (malignant tumour)” value was determined as 0. Besides, in series [12], the “Hepatotoxicity (cirrhosis)” value stood at 0. In series [13], the “Hepatotoxicity (benign tumour)” value turned out to be 0. The “Hepatotoxicity (cytolytic)” value in [14] turned out to be 0.
On to `CCOc1cc(CC(=O)N[C@@H](CC(C)C)c2ccccc2N2CCCCC2)ccc1C(=O)O` [REPAGLINIDE], for which, in [1], the “Hepatotoxicity (choleostasis)” value is given as 0. In [2], the “Hepatotoxicity (granulomatous hepatitis)” value was 0. For the same molecule, the “Hepatotoxicity (acute)” value worked out at 0 in series [3] and 0% in series [11] (Liver). In addition, the “Hepatotoxicity (moderate)” value is on record as 1.5% in series [4] (Liver) and 1 in [6]. The “Hepatotoxicity (association with vascular disease)” value in series [5] worked out at 0. Also, the “Hepatotoxicity (chronic liver disease)” value in [7] worked out at 0. In series [8] (Liver), the “Hepatotoxicity (severe hepatitis)” value is recorded as 0. In addition, the “Hepatotoxicity (steatosis)” value in series [9] amounted to 0. In addition, in series [10], the “Hepatotoxicity (malignant tumour)” value came out at 0. Moreover, the “Hepatotoxicity (cirrhosis)” value in series [12] is recorded as 0. In addition, the “Hepatotoxicity (benign tumour)” value in [13] worked out at 0. Moreover, the “Hepatotoxicity (cytolytic)” value in [14] was found to be 0.
`CO[C@@H](/C(C)=C/C=C/C(C)=C/c1coc(C)n1)[C@@H](C)[C@@H]1C[C@H](O)[C@@]2(C)O[C@@H]2/C=C/[C@@H](C)[C@H]2C[C@H](CC(=O)O2)C[C@@H]2O[C@H]2C(=O)O1` [RHIZOXIN]: the “Hepatotoxicity (choleostasis)” value in [1] stood at 0. For the same molecule, the “Hepatotoxicity (granulomatous hepatitis)” value in series [2] is listed as 0. The “Hepatotoxicity (acute)” value in [3] is given as 0; in series [11] it was 0%. Also, the figures for the “Hepatotoxicity (moderate)” value in series [4] and in [6] were 7.3% and 1, respectively. Moreover, the “Hepatotoxicity (association with vascular disease)” value in series [5] is listed as 0. Further, the “Hepatotoxicity (chronic liver disease)” value in series [7] turned out to be 0. Moreover, the “Hepatotoxicity (severe hepatitis)” value in [8] is recorded as 0. Moreover, the “Hepatotoxicity (steatosis)” value in series [9] is listed as 0. In addition, in [10], the “Hepatotoxicity (malignant tumour)” value is 0. The “Hepatotoxicity (cirrhosis)” value in series [12] is on record as 0. In addition, the “Hepatotoxicity (benign tumour)” value in series [13] came out at 0. Also, the “Hepatotoxicity (cytolytic)” value in series [14] is given as 0.
Turning to `CO[C@H]1/C=C/O[C@@]2(C)Oc3c(C)c(O)c4c(O)c(c5c(nc6cc(C)ccn65)c4c3C2=O)NC(=O)/C(C)=C\C=C\[C@H](C)[C@H](O)[C@@H](C)[C@@H](O)[C@@H](C)[C@H](OC(C)=O)[C@@H]1C` [RIFAXIMIN], the “Hepatotoxicity (choleostasis)” value in [1] came to 0. Further, in series [2], the “Hepatotoxicity (granulomatous hepatitis)” value stood at 0. The “Hepatotoxicity (acute)” value was found to be 0 in series [3] and 0% in series [11]. The results for the “Hepatotoxicity (moderate)” value in series [4] and in series [6] were 26.7% and 27, respectively. Besides, the “Hepatotoxicity (association with vascular disease)” value in series [5] is given as 0. In series [7], the “Hepatotoxicity (chronic liver disease)” value was found to be 0. In addition, the “Hepatotoxicity (severe hepatitis)” value in [8] was found to be 0. For the same molecule, the “Hepatotoxicity (steatosis)” value in series [9] is 0. Besides, in series [10], the “Hepatotoxicity (malignant tumour)” value worked out at 0. Besides, in series [12], the “Hepatotoxicity (cirrhosis)” value was 0. Also, the “Hepatotoxicity (benign tumour)” value in series [13] is 0. Moreover, the “Hepatotoxicity (cytolytic)” value in [14] came to 0.
`CC(N)C12CC3CC(CC(C3)C1)C2` (configuration not stated) [RIMANTADINE]: the “Hepatotoxicity (choleostasis)” value in [1] was 0. In addition, the “Hepatotoxicity (granulomatous hepatitis)” value in series [2] is on record as 0. For the same molecule, the “Hepatotoxicity (acute)” value in series [3] came out at 0; in series [11] it was 0%. Besides, the entries for the “Hepatotoxicity (moderate)” value in [4] and in series [6] were 1.8% and 1, respectively. The “Hepatotoxicity (association with vascular disease)” value in [5] is on record as 0. The “Hepatotoxicity (chronic liver disease)” value in series [7] was 0. Further, in series [8], the “Hepatotoxicity (severe hepatitis)” value is given as 0. In addition, the “Hepatotoxicity (steatosis)” value in series [9] was found to be 0. Also, the “Hepatotoxicity (malignant tumour)” value in [10] is 0. For the same molecule, the “Hepatotoxicity (cirrhosis)” value in [12] came to 0. For the same molecule, the “Hepatotoxicity (benign tumour)” value in series [13] stood at 0. For the same molecule, the “Hepatotoxicity (cytolytic)” value in series [14] is 0.
As for `CCCCC(C)(O)C/C=C/[C@H]1[C@H](O)CC(=O)[C@@H]1CCCCCCCO` (some centres not stated) [RIOPROSTIL], the “Hepatotoxicity (choleostasis)” value in series [1] was found to be 0. Also, the “Hepatotoxicity (granulomatous hepatitis)” value in series [2] was 0. In addition, the figures for the “Hepatotoxicity (acute)” value in series [3] and in series [11] were 0 and 0%, respectively. For the same molecule, the results for the “Hepatotoxicity (moderate)” value in series [4] and in series [6] were 10% and 1, respectively. Besides, the “Hepatotoxicity (association with vascular disease)” value in [5] came out at 0. Also, in series [7], the “Hepatotoxicity (chronic liver disease)” value was found to be 0. Besides, the “Hepatotoxicity (severe hepatitis)” value in series [8] was determined as 0. In series [9], the “Hepatotoxicity (steatosis)” value amounted to 0. Also, the “Hepatotoxicity (malignant tumour)” value in series [10] worked out at 0. In addition, the “Hepatotoxicity (cirrhosis)” value in series [12] was found to be 0. In series [13], the “Hepatotoxicity (benign tumour)” value was determined as 0. Further, the “Hepatotoxicity (cytolytic)” value in series [14] was 0.
